From US6878751B1, “Administration of resveratrol to treat inflammatory respiratory disorders” (Imperial College of Science Technology and Medicine, priority 2000, dated 2005)
Where two headings read alike, the source gives them in different places.

Key:
[1] = test system: Asthmatic steroid naive children; assay: Resveratrol substitution for glucocorticoids in asthmatic steroid naive children (Example 6); assay type: in vivo, human
Description: Asthmatic steroid naive children with asthma disease severe enough to require chronic pulmonary steroid therapy are divided randomly and blindly into three groups. The duration of the study should be long, as pulmonary steroids for asthma are a chronic therapy, thus 1 to 2 years or more is optimal. The first group is treated with oral resveratrol, with the group subdivided randomly and blindly into four approximately equal subgroups that receive either 0 (placebo), 200, 2000, or 3000 mg/day resveratrol for about 12 to 24 months in oral doses of 0, 50, 500, or 750 mg administered 4 times daily for about 12 to 24 months. […]
The methods of the following references may be used in the evaluation of asthmatic disease: Wohl et al. (2000) N. Engl. […] Patients are medically monitored for clinical symptoms of asthma throughout the study, including frequency and severity of acute asthma attacks. […] In addition exhaled nitric oxide (NO) and carbon monoxide (CO) levels may be measured at more frequent intervals, such as every other week. Forced expiratory volume (FEV) and forced inspiratory volume (FIV) are also evaluated to measure airway patency as a direct measure of clinical morbidity and to determine correlation the histopathologic and other indicators of clinical disease, such as exhaled NO. […]

iNOS = iNOS activity by nitrite and nitrite/nitrate accumulation in cytomix-stimulated human primary epithelial cells; assay type: cell-based; conditions: for EC50: Homo sapiens, Epithelial cell, 24 h
Description: The inducible form of the enzyme NO synthase, iNOS(NOS2), which is known to be expressed during inflammation, is thought to be responsible for increased NO levels of asthmatic patients. Agents known to induce iNOS in human primary epithelial cells, such as interleukin-1β, tumor necrosis factor-α, and interferon-γ (cytomix) are useful in assaying resveratrol for inhibition of iNOS expression and activity, and comparing its effect to steroids.
Human primary epithelial cells are cultured from normal donor tissue. Explant cultures of tissue obtained from normal human lung transplant donors provided human primary epithelial (HPE) cells. The HPE cells were cultured in Ham's F12 nutrient medium containing 5% (v/v) fetal calf serum (FCS), 1 μM hydrocortisone, 5 ng/ml EGF (epithelial growth factor), 10 μg/ml insulin, 10 nM retinoic acid, 0.5 μg/ml transferrin, 2 μg/ml triiodothyronine, 1.5 μg/ml NaHCO3, 100 μg/ml penicillin, 100 μg/ml streptomycin and 0.25 μg/m amphotericin B; the cells were incubated at 37° C. in a humidified atmosphere containing 95% (v/v) air, 5% (v/v) CO2. The HPE cells were cultured for the last 24 hours prior to the experimental treatments under the same conditions except that additive free Ham's F12 media was substituted for the supplemented Ham's F12 media described above.
These cells were stimulated for 24 hours with 50 ng/ml cytomix (interferon-γ) in the absence or presence of resveratrol, or one of glucocorticoids, dexamethasone and budenoside. Activity of iNOS is measured by determination of […] and nitrite/nitrate accumulation. Nitrite was measured by a modification of the method of Misko, et al. (1993) Anal. Biochem. 214:11-16. […] The reaction was stopped by addition of 10 μl of 1.4M NaOH, and fluorescense was measured with a Biolite F1 fluorimeter (Labtech, Uckfield, U.K.) set at: 460 nm emission wavelength, 360 nm excitation wavelength, 40-50% sensitivity. Sample nitrite concentration was calculated by reference to a standard curve of known nitrite concentrations, permitting assay sensitivity to 0.1 μM.

[2] = test system: Smokers with no disease or mild COPD; assay: Oral resveratrol for chemoprevention of COPD in smokers (Example 10); assay type: in vivo, human; conditions: 2 to 5 years
Description: Resveratrol is evaluated clinically for efficacy in chemoprevention of COPD in smokers. The study is generally patterned after the asthma studies with modifications appropriate to the clinical and histopathologic evaluation of COPD disease, and the references listed in the preceding examples may be applied as appropriate. Smokers with no disease or mild COPD are treated once or more per day with gelatin capsules containing resveratrol. The population of smokers are subdivided into subpopulations: clinically and histopathologically disease free, clinically asymptomatic with histopathologic inflammation and mildly COPD symptomatic, meaning some chronic bronchitis but no pulmonary impairment causing hypoxemia or acidosis. Each subpopulation is divided randomly and blindly into four approximately equal groups that receive either 0 (placebo), 200, 2000, or 3000 mg/day resveratrol […] in oral doses of 0, 50, 500, or 750 mg administered 4 times daily for 2 to 5 years. […]
Patients are medically monitored for clinical symptoms of COPD throughout the study, including onset of symptoms and frequency and severity thereof. […] Forced expiratory volume (FEV) and forced inspiratory volume (FIV) are also evaluated to measure airway patency as a direct measure of clinical morbidity and to determine correlation the histopathologic and other indicators of clinical disease. […]

Oc1ccc(/C=C/c2cc(O)cc(O)c2)cc1 [Resveratrol, 3,5,4′-trihydroxystilbene]
efficacy as substitute for inhaled steroids in treating asthma ([1]; oral or pulmonary resveratrol vs pulmonary budenoside, 12 to 24 months): effective as substitutes for antiinflammatory treatment with inhaled steroids in treating asthma | systemic side effects compared with inhaled glucocorticoids ([1]; oral or pulmonary resveratrol, including suppression of growth): reduced systemic side effects | inhibition of nitrite formation / accumulation in the cell culture media (iNOS; HPE cells, cytomix 24 hours, steroids at 10^−9 M to 10^−5 M): only agent able to inhibit nitrite formation | EC50 (iNOS; read-out: EC50 for nitrite accumulation): 3600 ± 2900 nM | EC50 (iNOS; read-out: EC50 for nitrite/nitrate accumulation): 880 ± 470 nM | side effects ([2]; oral, relative to those expected from steroid administration): without significant side effects | efficacy in chemoprevention of COPD in smokers ([2]; oral, 200, 2000 or 3000 mg/day): effective for chemoprevention of COPD in smokers
